From PMC4139342, “Pharmacokinetics-Pharmacodynamics Analysis of Bicyclic 4-Nitroimidazole Analogs in a Murine Model of Tuberculosis” (PLoS ONE, 2014)
Converted amounts (≈) assume the structure as drawn. Like-named read-outs stand apart in the source and are kept apart here.

Experiments:
[1] = system: M. tuberculosis (Mtb) (H37Rv, ATCC 27294); assay: microbe, parasite or virus in culture; format: cell-based; conditions: Mycobacterium tuberculosis
[2] = Cytotoxicity against THP1 macrophage cell lines; format: cell-based; conditions: human
Mtb H37Rv = assay: In vivo mouse efficacy, established murine TB model; set-up: species or system Balb/c mice; conditions: for Mean log lung CFU ± SEM / log reduction at 100 mg/kg / log reduction at 25 mg/kg: 5 animals; for Efficacy compared with PA-824, in words: significance at P<0.05; for log reduction at 100 mg/kg / log reduction at 25 mg/kg: Mycobacterium tuberculosis, H37RV, po, 672 h, read-out: Mean log lung CFU reduction ± SEM compared to untreated controls; for Dose dependence of efficacy, in words: 25 versus 100 mg/kg oral daily for 4 weeks
Method: In vivo mouse efficacy studies were determined after intranasal infection of Balb/c mice with 10^3 cfu Mtb H37Rv. Treatment was initiated 4 weeks after infection. Compounds were orally administered in CM-2 formulation for 4 weeks daily. Bacterial loads were determined at 2 and 4 weeks post treatment. Statistical analysis was done by a one-way analysis of variance, followed by a multiple comparison analysis of variance by a one-way Tukey test (GraphPad Prism, version 5.02, San Diago, California USA, www.graphpad.com). Differences were considered statistically significant at the 95% level of confidence.

[3] = female, CD-1, mouse, in vivo, po
in vivo [4] = conditions: female, CD-1, mouse, po
in vivo [5] = conditions: female, CD-1, mouse, iv; for clearance: i.v. CL
in vivo [6] = conditions: female, CD-1, mouse, po; remark: listed apart in the source
physchem [7] = conditions: pH 6.8, aqueous buffer, thermodynamic from solid
physchem [8] = assay: physchem
in vitro [9] = conditions: human, Caco-2
in vitro [10] = conditions: mouse, plasma
[11] = In vivo lung PK after oral dosing; conditions: female, CD-1, mouse
[12] = In vivo plasma PK after intravenous dosing; conditions: mice; for half-life: female, CD-1, mouse, plasma, iv, T1/2 (i.v)
[13] = In vivo plasma PK after oral dosing in CM-2 formulation; conditions: female, CD-1, mouse, plasma, po
[14] = cited from earlier work
[15] = not given; remark: listed apart in the source
[16] = female, CD-1, mouse, in vivo, po, 25 mg/kg
[17] = 100 mg/kg oral daily for 4 weeks
[18] = 10 mg/kg, Lung to Plasma ratio AUC24
[19] = 10 mg/kg, Lung to Plasma ratio Cmax
[20] = 10 mg/kg, i.v. dosing at 10 mg/kg
[21] = 5 mg/kg, i.v. dosing at 5 mg/kg
[22] = 25 mg/kg oral daily for 4 weeks
[23] = 25 mg/kg, Lung to Plasma ratio AUC24
[24] = 25 mg/kg, Lung to Plasma ratio Cmax

SMILES | MIC99 [1] [µg/mL] | CC50 [2] [µg/mL] | Mean log lung CFU ± SEM (Mtb H37Rv; [17]) [log CFU] | Efficacy compared with PA-824, in words (Mtb H37Rv; [17]) | log reduction at 100 mg/kg (Mtb H37Rv; [17]) | PAMPA %FA [%] | PAMPA Log Pe | Vd (in vivo [5]; 10 mg/kg) [L/kg] | clearance (in vivo [5]; 10 mg/kg) [mL/min/kg] | solubility (physchem [7]) [µg/mL] | logP (physchem [8]) | Papp A→B (in vitro [9]) [×10⁻⁶ cm/s] | Papp B→A (in vitro [9]) [×10⁻⁶ cm/s] | efflux ratio (in vitro [9]) | fraction unbound (in vitro [10]) | half-life [12, 20] [h] | Lung AUC24 ([3]; 25 mg/kg) [µg·h/g] | Lung Cmax ([3]; 25 mg/kg) [µg/g] | AUC (in vivo [4]; 25 mg/kg) [ng·h/mL] | Cmax (in vivo [4]; 25 mg/kg) [ng/mL] | other results
O=[N+]([O-])c1cn2c(n1)OC[C@@H](NCc1ccc(OC(F)(F)F)cc1)C2 [Amino-824, ((s)-2-nitro-6,7-dihydro-5H-imidazo[2,1-b][1,3]oxazin-6-yl)-(4-trifluoromethoxybenzyl)amine] | 0.14 (≈ 0.391 µM) | > 10 | 5.14±0.08 | significantly (P<0.05) less efficacious than PA-824 | 1.08 ± 0.08 | 91 | –4.8 cm/sec | 2.3 | 20.5 | 127 (≈ 354 µM) | 2.5 | 35.4 | 21 | 0.6 | 0.2 | 2 | – | – | – | – | Lung AUC24 ([3]; 10 mg/kg): 4.5 µg·h/g; Lung Cmax ([3]; 10 mg/kg): 1.4 µg/g; AUC (in vivo [4]; 10 mg/kg): 6000 ng·h/mL; Cmax (in vivo [4]; 10 mg/kg): 1700 ng/mL; bioavailability (in vivo [4]; 10 mg/kg): 74%; Kp (in vivo [6]; [18]): 0.8; Kp (in vivo [6]; [19]): 0.8; half-life ([11]; 10 mg/kg): 1.3 h; half-life ([13]; 10 mg/kg): 2 h
O=[N+]([O-])c1cn2c(n1)OC[C@@H](NCCc1ccc(OC(F)(F)F)cc1)C2 [AminoEthyl-824] | 0.06 (≈ 0.161 µM) | > 10 | 4.53±0.07 | comparable efficacy to PA-824 | 1.69 ± 0.07 | 85 | –4.6 cm/sec | 2 | 44 | 104 (≈ 279 µM) | 3.6 | 18.6 | 20.7 | 1.1 | 0.55 | < 1 | – | – | – | – | Lung AUC24 ([3]; 10 mg/kg): 5.2 µg·h/g; Lung Cmax ([3]; 10 mg/kg): 1.6 µg/g; AUC (in vivo [4]; 10 mg/kg): 2900 ng·h/mL; Cmax (in vivo [4]; 10 mg/kg): 1000 ng/mL; bioavailability (in vivo [4]; 10 mg/kg): 76%; Kp (in vivo [6]; [18]): 1.8; Kp (in vivo [6]; [19]): 1.6; half-life ([11]; 10 mg/kg): 1.2 h; T1/2 (i.v) ([12]; i.v. dosing at 10 mg/kg, 10 mg/kg): 0.7 h; half-life ([13]; 10 mg/kg): 1.7 h
CC[C@H]1OC(=O)[C@H](C)[C@@H](O[C@H]2C[C@@](C)(OC)[C@@H](O)[C@H](C)O2)[C@H](C)[C@@H](O[C@@H]2O[C@H](C)C[C@H](N(C)C)[C@H]2O)[C@](C)(O)C[C@@H](C)CN(C)[C@H](C)[C@@H](O)[C@]1(C)O [Azithromycin] | – | – | – | – | – | – | – | – | – | – | – | – | – | – | – | – | – | – | – | – | AUC lung/serum [14]: 21; Vss [14]: 33 L/kg
O=[N+]([O-])c1cn2c(n1)OC[C@@H](NCc1ccc(OC(F)(F)F)c(O)c1)C2 [NI-147] | 0.03 (≈ 0.0802 µM) | – | – | – | – | 43 | –5.2 cm/sec | – | – | – | 2.4 | – | – | – | – | – | 2.6 | 0.5 | 20 | 40 | Solubility pH 6.8 [15]: 56.0 µg/mL; Tmax (in vivo [4]; 25 mg/kg): 0.1 h; bioavailability (in vivo [4]; 25 mg/kg): 0.3%; Vd (in vivo [5]; 5 mg/kg): 0.4 L/kg; clearance (in vivo [5]; 5 mg/kg): 70.8 mL/min/kg; Tmax (in vivo [6]; 25 mg/kg): 0.1 h; half-life [12, 21]: 0.3 h; half-life ([13]; 25 mg/kg): 0.2 h
CC[C@H]1Oc2nc([N+](=O)[O-])cn2C[C@@H]1NCc1ccc(OC(F)(F)F)cc1 [NI-182] | 0.02 (≈ 0.0518 µM) | > 10 | 4.81±0.18 | significantly (P<0.05) less efficacious than PA-824 | 1.26 ± 0.18 | 99 | –3.8 cm/sec | – | – | 32 (≈ 82.8 µM) | 3.05 | 18.3 | 13.9 | 0.8 | 0.087 | – | 73.2 | 11.4 | 22500 | 3500 | Mean log lung CFU ± SEM (Mtb H37Rv; [22]): 4.84±0.14 log CFU; Efficacy compared with PA-824, in words (Mtb H37Rv; [22]): comparable efficacy to PA-824; Dose dependence of efficacy, in words (Mtb H37Rv): no dose-dependent increase in bactericidal activity; log reduction at 25 mg/kg (Mtb H37Rv; [22]): 1.23 to 1.56; Plasma free fCmax [16]: 0.3 µg/mL; Tmax (in vivo [4]; 25 mg/kg): 0.5 h; bioavailability (in vivo [4]; 25 mg/kg): 82%; Vd (in vivo [5]; 5 mg/kg): 3 L/kg; clearance (in vivo [5]; 5 mg/kg): 15.2 mL/min/kg; Tmax (in vivo [6]; 25 mg/kg): 0.5 h; Kp (in vivo [6]; [23]): 3.3; Kp (in vivo [6]; [24]): 3.3; half-life ([11]; 25 mg/kg): 1.9 h; half-life [12, 21]: 2.8 h; half-life ([13]; 25 mg/kg): 2 h
CC[C@H]1Oc2nc([N+](=O)[O-])cn2C[C@@H]1NCc1ccc(-c2ccc(OC(F)(F)F)cc2)cc1 [NI-297] | 0.02 (≈ 0.0432 µM) | > 10 | – | – | – | 97 | –4.1 cm/sec | – | – | < 2 | 6 | – | – | – | 0.018 | – | 233.4 | 16.3 | 99100 | 6000 | Mean log lung CFU ± SEM (Mtb H37Rv; [22]): 4.51±0.11 log CFU; Efficacy compared with PA-824, in words (Mtb H37Rv; [22]): comparable efficacy to PA-824; log reduction at 25 mg/kg (Mtb H37Rv; [22]): 1.23 to 1.56; Plasma free fCmax [16]: 0.1 µg/mL; Tmax (in vivo [4]; 25 mg/kg): 8 h; bioavailability (in vivo [4]; 25 mg/kg): 100%; Vd (in vivo [5]; 5 mg/kg): 2.6 L/kg; clearance (in vivo [5]; 5 mg/kg): 5 mL/min/kg; Tmax (in vivo [6]; 25 mg/kg): 8 h; Kp (in vivo [6]; [23]): 2.4; Kp (in vivo [6]; [24]): 2.7; half-life ([11]; 25 mg/kg): 4.6 h; half-life [12, 21]: 6.7 h; half-life ([13]; 25 mg/kg): 4.9 h
O=C(CO[C@@H]1COc2nc([N+](=O)[O-])cn2C1)N1CCN(c2ccc(OC(F)(F)F)cc2)CC1 [NI-622] | 0.18 (≈ 0.382 µM) | > 10 | 5.85±0.11 | significantly (P<0.05) less efficacious than PA-824 | 0.81 ± 0.11 | 31 | –5.3 cm/sec | 1.8 | 14.7 | 28.2 (≈ 59.8 µM) | 2.9 | 9.5 | 12.4 | 1.3 | 0.03 | 1.8 | – | – | – | – | Mean log lung CFU ± SEM (Mtb H37Rv; [22]): 5.77±0.08 log CFU; Efficacy compared with PA-824, in words (Mtb H37Rv; [22]): significantly (P<0.05) less efficacious than PA-824; Dose dependence of efficacy, in words (Mtb H37Rv): no dose-dependent increase in bactericidal activity; log reduction at 25 mg/kg (Mtb H37Rv; [22]): 0.48 to 0.89; Lung AUC24 ([3]; 50 mg/kg): 71.1 µg·h/g; Lung Cmax ([3]; 50 mg/kg): 10.2 µg/g; AUC (in vivo [4]; 50 mg/kg): 108000 ng·h/mL; Cmax (in vivo [4]; 50 mg/kg): 14800 ng/mL; bioavailability (in vivo [4]; 50 mg/kg): 100%; Kp (in vivo [6]; 50 mg/kg, Lung to Plasma ratio AUC24): 0.7; Kp (in vivo [6]; 50 mg/kg, Lung to Plasma ratio Cmax): 0.7; half-life ([11]; 50 mg/kg): 1.8 h; half-life ([13]; 50 mg/kg): 2.1 h
COc1nc2ccc(Br)cc2cc1[C@@H](c1ccccc1)[C@@](O)(CCN(C)C)c1cccc2ccccc12 [TMC207] | – | – | – | – | – | – | – | – | – | – | – | – | – | – | – | – | – | – | – | – | AUC L/P ratio ([14]; lungs): 22
